Tests used:
[1] = test system: RSV; assay: viral plaque reduction assay, RSV; format: cell-based, Respiratory Syncitial Virus
[2] = test system: CMV (Ad169); assay: viral plaque reduction assay, CMV; format: cell-based, Cytomegalovirus
[3] = test system: RSV (A2); assay: viral yield reduction (growth inhibition) assay, RSV; format: cell-based, Respiratory Syncitial Virus
Experimental: The compounds were tested for biological activity using viral yield reduction assays. Host cells (indicated as HF for human foreskin fibroblasts and as vero, the commonly used African green monkey cell line, in Tables 1 and 1a) were plated at 4 x 10^4 cells/well in cell growth medium with 2% fetal bovine serum or 2% calf serum in 96-well plates (0.1 ml/well) and incubated overnight. The compounds were added to individual wells to give final concentrations ranging from 50 to 0.1 µg/ml in two-fold concentration steps. After 1 hour, virus was added, and the incubation was continued for 4 days with RSV or CMV and for 2 days with HSV. At the end of the experiment, the amount of virus growth was quantitated and the yield reduction at various concentrations of compound was calculated. This allows estimation of the concentration of compound giving 50% reduction in virus growth (IC50).

[4] = test system: FLU; assay: viral plaque reduction assay, influenza; format: cell-based; settings: Pre
[5] = test system: RSV; assay: time of addition: effect on viral protein synthesis in infected Vero cells; format: cell-based
Experimental: The time in the virus life-cycle when Example 1 exerts its effect was determined to increase understanding of the mechanism of action. This was accomplished by adding and removing the compound at various times relative to infection and assessing the effect on viral protein synthesis. Vero cells were infected on ice for 1 hour, unadsorbed virus was removed, and then the infected cells were incubated at 37°C for 18 hours (virus adsorption will occur on ice, but fusion will not proceed until the temperature is raised to 18°C or above). After the 18 hour incubation at 37°C (when the bulk of ongoing protein synthesis was directed by viral RNAs), ^35S-methionine was added for 2 hours, the cells were lysed, and the labeled proteins were analyzed on SDS-PAGE gels. The viral N, P, and M proteins were then evident. […] However, when the compound of Example 1 was added even after only 5 minutes incubation at 37°C, viral protein production was unimpeded. Therefore, the process inhibited was the fusion process or some closely succeeding step which is required for later viral gene expression.

[6] = test system: HPIV3; assay: viral plaque reduction assay, HPIV3; format: cell-based, human parainfluenza virus type 3, strain Washington; settings: HPIV3 WASH., VERO, Pre
[7] = test system: HSV2; assay: viral plaque reduction assay, HSV2; format: cell-based, herpes simplex virus; settings: Pre
[8] = test system: HSV1 (Patton); assay: viral plaque reduction assay, HSV1; format: cell-based, Herpes Simplex Virus; settings: HSV1 (Patton), vero host cells
[9] = test system: RSV A2; format: in vivo, cotton rats; settings: cotton rats, summary of Table 3

## 4,4'-Bis[4,6-di[3-aminophenyl-N,N-bis(2-carbamoyl-ethyl)sulfonylimino]-1,3,5-triazin-2-ylamino]-stilbene-2,2'-disulfonic acid, disodium salt [Example 1]
[1]; RSV 2B, VERO, Pre
  IC50 (µG/ml) viral plaque formation: 0.1 µg/mL
[1]; RSV 3A, VERO, Pre
  IC50 (µG/ml) viral plaque formation: 0.5 µg/mL
[1]; RSV 9320, VERO, Pre
  IC50 (µG/ml) viral plaque formation: 0.2 µg/mL
[1]; RSV (A2), vero host cells
  IC50µG/mL IN PLAQUE ASSAY RSV/ VERO: 0.3 µg/mL
[1]; RSV A2, HF, Post 2 hours
  IC50 (µG/ml) viral plaque formation: <3 µg/mL
[1]; RSV A2, HF, Pre
  IC50 (µG/ml) viral plaque formation: 0.4 µg/mL
[1]; RSV A2, MDBK, Pre
  IC50 (µG/ml) viral plaque formation: 0.4 µg/mL
[1]; RSV A2, SKNSH, Pre
  IC50 (µG/ml) viral plaque formation: 0.4 µg/mL
[1]; RSV A2, VERO, Post 2 hours
  IC50 (µG/ml) viral plaque formation: 0.3 µg/mL
[1]; RSV A2, VERO, Post 24 hours
  IC50 (µG/ml) viral plaque formation: 0.4 µg/mL
[1]; RSV A2, VERO, Pre (pretreatment)
  IC50 (µG/ml) viral plaque formation: 0.3 µg/mL
[1]; RSV LONG, VERO, Pre
  IC50 (µG/ml) viral plaque formation: 0.2 µg/mL
[1]; all RSV strains tested
  active against all RSV strains tested (plaque assays): 0.1 to 0.7 µg/mL
[2]; CMV (Ad169), HF host cells
  IC50µG/mL IN PLAQUE ASSAY CMV/ HF: 7 µg/mL
[2]; HCMV Ad169, HF, Pre
  IC50 (µG/ml) viral plaque formation: 15 µg/mL
[3]; HF host cells
  IC50 µG/mL IN GROWTH […]/ HF: 0.3 µg/mL
[3]; vero host cells
  IC50 µG/mL IN GROWTH […]/ VERO: 0.5 µg/mL
[4]; FLU A1/FM/1/47, MDCK
  IC50 (µG/ml) viral plaque formation: >50 µg/mL
[4]; FLU A2/HK/8/68, MDCK
  IC50 (µG/ml) viral plaque formation: >50 µg/mL
[4]; FLU A2/JPN/305/57, MDCK
  IC50 (µG/ml) viral plaque formation: >50 µg/mL
[4]; FLU A/Beij/32/92, MDCK
  IC50 (µG/ml) viral plaque formation: >20 µg/mL
[4]; FLU A/Texas/36/91, MDCK
  IC50 (µG/ml) viral plaque formation: 5 µg/mL
[4]; FLU B/Pana/45/90, MDCK
  IC50 (µG/ml) viral plaque formation: >20 µg/mL
[5]; 10 µg/ml added immediately after virus adsorption and before raising the incubation temperature to 37°C
  viral protein synthesis: fully prevented
[5]; added after only 5 minutes incubation at 37°C
  viral protein production: unimpeded
[6]
  IC50 (µG/ml) viral plaque formation: 20 µg/mL
[7]; HSV2 12, VERO
  IC50 (µG/ml) viral plaque formation: >10 µg/mL
[7]; HSV2 333, VERO
  IC50 (µG/ml) viral plaque formation: 3 µg/mL
[7]; HSV2 MS, VERO
  IC50 (µG/ml) viral plaque formation: 5 µg/mL
[8]
  IC50µG/mL IN PLAQUE ASSAY HSV/ VER O: 8 µg/mL
[9]
  inhibition of RSV in vivo (summary in words): inhibit RSV in vivo
